Reference: patent US12552775B2, “Compounds and uses thereof” (Foghorn Therapeutics Inc., priority 2020, dated 2026)

Key:
HiBit-BRM fusion protein = target: T1, HiBit-BRM fusion protein (Homo sapiens, UniProt P51531); assay: HiBiT-BRM cell-based degradation assay (Nano-Glo HiBiT Lytic Detection, 24 h); settings: stable HeLa cell line expressing HiBiT-BRM, top dose 30 μM
T1 construct: expressed in transfected cells
Method in brief: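 Stable HiBiT-BRM HeLa cells were treated with 10-point 3-fold serial dilutions (30 μM final top dose, duplicate) for 24 h, then lysed with LgBiT-containing detection reagent and luminescence read. Degradation % was normalised to DMSO (high control) and 2 μM reference BRM/BRG1 degrader (low control).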

[1] = target: T2, HiBit-BRG1 fusion protein (Homo sapiens, UniProt P51532); assay: HiBiT-BRG1 cell-based degradation assay (Nano-Glo HiBiT Lytic Detection, 24 h); settings: stable HeLa cell line expressing HiBit-BRG1 and LgBit, top dose 30 μM, read-out: BRG1 HiBit Degradation Maximum (%)
T2 construct: expressed in transfected cells
Method in brief: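 HeLa cells stably expressing HiBiT-BRG1 plus LgBiT were treated with 10-point 3-fold compound dilutions (top 30 μM final) for 24 h. Lytic Nano-Glo HiBiT luminescence was read. % degradation was normalised between DMSO (high control) and 2 μM of a reference BRM/BRG1 degrader (low control).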

T1 sequence (P51531 whole entry, the tested form may be a part): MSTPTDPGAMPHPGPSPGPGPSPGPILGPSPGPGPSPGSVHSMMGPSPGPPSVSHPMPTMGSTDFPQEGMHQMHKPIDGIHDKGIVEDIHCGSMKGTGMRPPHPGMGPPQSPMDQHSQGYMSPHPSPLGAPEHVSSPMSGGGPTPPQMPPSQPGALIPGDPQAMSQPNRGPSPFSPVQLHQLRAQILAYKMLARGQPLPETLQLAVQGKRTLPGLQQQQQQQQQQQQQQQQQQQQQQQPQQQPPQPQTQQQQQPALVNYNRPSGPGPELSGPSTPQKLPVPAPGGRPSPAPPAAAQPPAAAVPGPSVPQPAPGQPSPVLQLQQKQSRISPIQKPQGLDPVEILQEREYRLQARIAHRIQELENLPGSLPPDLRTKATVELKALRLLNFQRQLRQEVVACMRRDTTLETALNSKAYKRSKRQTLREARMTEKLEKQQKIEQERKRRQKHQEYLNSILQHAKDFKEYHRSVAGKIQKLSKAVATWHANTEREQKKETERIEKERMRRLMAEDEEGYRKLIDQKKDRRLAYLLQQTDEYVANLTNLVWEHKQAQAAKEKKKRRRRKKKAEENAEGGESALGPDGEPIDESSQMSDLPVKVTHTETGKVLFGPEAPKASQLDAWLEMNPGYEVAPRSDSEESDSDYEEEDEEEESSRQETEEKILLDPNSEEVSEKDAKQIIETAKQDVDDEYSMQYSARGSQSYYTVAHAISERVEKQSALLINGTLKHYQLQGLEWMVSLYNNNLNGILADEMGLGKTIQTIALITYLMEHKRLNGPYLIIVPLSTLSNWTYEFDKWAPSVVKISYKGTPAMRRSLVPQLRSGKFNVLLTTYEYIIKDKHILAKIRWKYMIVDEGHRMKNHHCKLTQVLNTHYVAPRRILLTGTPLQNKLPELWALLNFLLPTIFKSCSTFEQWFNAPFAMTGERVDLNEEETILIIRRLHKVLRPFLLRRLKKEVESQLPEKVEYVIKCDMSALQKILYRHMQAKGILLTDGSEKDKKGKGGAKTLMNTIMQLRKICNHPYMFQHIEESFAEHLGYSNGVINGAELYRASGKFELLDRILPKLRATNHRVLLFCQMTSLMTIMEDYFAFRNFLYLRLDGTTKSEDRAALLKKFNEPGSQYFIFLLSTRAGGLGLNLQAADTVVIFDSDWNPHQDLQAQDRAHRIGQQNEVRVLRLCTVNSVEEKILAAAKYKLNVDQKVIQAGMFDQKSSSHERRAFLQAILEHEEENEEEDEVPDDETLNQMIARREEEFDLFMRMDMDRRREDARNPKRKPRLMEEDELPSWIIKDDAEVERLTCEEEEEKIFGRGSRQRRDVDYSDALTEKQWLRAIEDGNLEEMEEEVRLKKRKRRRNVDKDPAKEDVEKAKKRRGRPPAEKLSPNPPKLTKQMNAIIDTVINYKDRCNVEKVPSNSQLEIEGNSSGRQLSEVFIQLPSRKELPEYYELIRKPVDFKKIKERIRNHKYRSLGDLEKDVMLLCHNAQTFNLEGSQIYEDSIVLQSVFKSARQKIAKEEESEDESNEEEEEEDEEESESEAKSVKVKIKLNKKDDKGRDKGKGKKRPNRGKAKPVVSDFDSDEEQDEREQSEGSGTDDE
T2 sequence (P51532 whole entry, the tested form may be a part): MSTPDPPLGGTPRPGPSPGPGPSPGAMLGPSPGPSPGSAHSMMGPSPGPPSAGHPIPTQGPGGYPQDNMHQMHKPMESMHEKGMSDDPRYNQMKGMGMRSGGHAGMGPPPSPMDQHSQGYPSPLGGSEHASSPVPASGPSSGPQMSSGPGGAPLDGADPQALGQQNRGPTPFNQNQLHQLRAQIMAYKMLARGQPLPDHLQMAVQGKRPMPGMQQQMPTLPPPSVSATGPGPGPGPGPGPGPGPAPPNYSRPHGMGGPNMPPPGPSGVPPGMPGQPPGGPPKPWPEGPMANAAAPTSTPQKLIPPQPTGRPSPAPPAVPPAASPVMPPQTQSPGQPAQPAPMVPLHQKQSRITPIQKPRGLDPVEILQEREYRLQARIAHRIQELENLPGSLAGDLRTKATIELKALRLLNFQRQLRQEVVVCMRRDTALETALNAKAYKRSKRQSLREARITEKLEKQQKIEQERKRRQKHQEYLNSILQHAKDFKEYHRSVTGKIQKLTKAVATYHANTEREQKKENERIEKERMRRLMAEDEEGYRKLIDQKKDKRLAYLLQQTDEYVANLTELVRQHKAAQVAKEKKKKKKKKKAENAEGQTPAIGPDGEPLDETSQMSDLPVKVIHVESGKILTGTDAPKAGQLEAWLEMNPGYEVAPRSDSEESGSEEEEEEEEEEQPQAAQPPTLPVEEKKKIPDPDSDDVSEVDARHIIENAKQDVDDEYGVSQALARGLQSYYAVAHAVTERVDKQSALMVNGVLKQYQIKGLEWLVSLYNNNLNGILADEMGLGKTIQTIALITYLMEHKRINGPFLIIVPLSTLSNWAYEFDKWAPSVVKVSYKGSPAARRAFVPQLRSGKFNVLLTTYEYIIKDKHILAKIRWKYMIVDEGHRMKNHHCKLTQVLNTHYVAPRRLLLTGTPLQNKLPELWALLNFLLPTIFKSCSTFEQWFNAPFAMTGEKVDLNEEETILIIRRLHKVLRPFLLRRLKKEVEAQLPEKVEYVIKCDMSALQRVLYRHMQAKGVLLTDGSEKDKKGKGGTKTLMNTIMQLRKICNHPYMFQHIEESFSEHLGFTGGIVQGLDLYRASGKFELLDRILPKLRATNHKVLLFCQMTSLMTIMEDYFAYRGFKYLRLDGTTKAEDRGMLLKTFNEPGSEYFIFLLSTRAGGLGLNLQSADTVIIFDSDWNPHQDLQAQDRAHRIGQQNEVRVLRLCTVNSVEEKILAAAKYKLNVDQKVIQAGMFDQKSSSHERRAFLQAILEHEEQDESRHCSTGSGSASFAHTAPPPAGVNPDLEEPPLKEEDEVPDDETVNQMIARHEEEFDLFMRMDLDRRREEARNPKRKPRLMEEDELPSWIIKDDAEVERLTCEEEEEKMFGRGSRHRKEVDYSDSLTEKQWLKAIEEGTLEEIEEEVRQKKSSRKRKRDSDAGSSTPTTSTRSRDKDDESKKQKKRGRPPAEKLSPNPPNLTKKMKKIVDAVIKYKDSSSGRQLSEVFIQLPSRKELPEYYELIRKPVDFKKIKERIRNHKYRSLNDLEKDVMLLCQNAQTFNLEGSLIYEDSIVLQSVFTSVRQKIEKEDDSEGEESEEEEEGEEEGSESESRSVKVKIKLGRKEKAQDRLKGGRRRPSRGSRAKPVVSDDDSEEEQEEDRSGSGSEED

Compound | BRM HiBit Degradation Maximum (%) (HiBit-BRM fusion protein) | Dmax [1]
Nc1nnc(-c2ccccc2O)cc1OCC12CC(CNC(=O)CCCCCCCCNc3cccc4c3C(=O)N(C3CCC(=O)NC3=O)C4=O)(C1)C2 (centres unmarked) [Compound 7, N-[[3-([[3-amino-6-(2-hydroxyphenyl)pyridazin-4-yl]oxy]methyl)bicyclo[1.1.1]pentan-1-yl]methyl]-9-[[2-(2,6-dioxopiperidin-3-yl)-1,3-dioxoisoindol-4-yl]amino]nonanamide] | C (“C” indicates maximum degradation < 50%) | < 50%
Cc1ncsc1-c1ccc(CNC(=O)[C@@H]2C[C@@H](O)CN2C(=O)[C@@H](NC(=O)CCCCCCCCCCC(=O)NCC23CC(COc4cc(-c5ccccc5O)nnc4N)(C2)C3)C(C)(C)C)cc1 [Compound 38, N1-((3-(((3-amino-6-(2-hydroxyphenyl)pyridazin-4-yl)oxy)methyl)bicyclo[1.1.1]pentan-1-yl)methyl)-N12-((S)-1-((2S,4R)-4-hydroxy-2-((4-(4-methylthiazol-5-yl)benzyl)carbamoyl)pyrrolidin-1-yl)-3,3-dimethyl-1-oxobutan-2-yl)dodecanediamide] | B (“B” indicates maximum degradation ≥ 50%) | < 50%
Nc1nnc(-c2ccccc2O)cc1OCC12CC(C(=O)NCCS(=O)(=O)CCNc3cccc4c3C(=O)N(C3CCC(=O)NC3=O)C4=O)(C1)C2 (centres unmarked) [Compound 74, 3-(((3-amino-6-(2-hydroxyphenyl)pyridazin-4-yl)oxy)methyl)-N-(2-((2-((2-(2,6-dioxopiperidin-3-yl)-1,3-dioxoisoindolin-4-yl)amino)ethyl)sulfonyl)ethyl)bicyclo[1.1.1]pentane-1-carboxamide] | C (“C” indicates maximum degradation < 50%) | < 50%
Nc1nnc(-c2ccccc2O)cc1OCC12CC(C(=O)NCCOc3ccc4c(c3)C(=O)N(C3CCC(=O)NC3=O)C4=O)(C1)C2 (centres unmarked) [Compound 55, 3-(((3-amino-6-(2-hydroxyphenyl)pyridazin-4-yl)oxy)methyl)-N-(2-((2-(2,6-dioxopiperidin-3-yl)-1,3-dioxoisoindolin-5-yl)oxy)ethyl)bicyclo[1.1.1]pentane-1-carboxamide] | C (“C” indicates maximum degradation < 50%) | < 50%
Nc1nnc(-c2ccccc2O)cc1OCC12CC(CNC(=O)CCOCCOCCOc3cccc4c3C(=O)N(C3CCC(=O)NC3=O)C4=O)(C1)C2 (centres unmarked) [Compound 14, N-((3-(((3-amino-6-(2-hydroxyphenyl)pyridazin-4-yl)oxy)methyl)bicyclo[1.1.1]pentan-1-yl)methyl)-3-(2-(2-((2-(2,6-dioxopiperidin-3-yl)-1,3-dioxoisoindolin-4-yl)oxy)ethoxy)ethoxy)propanamide] | C (“C” indicates maximum degradation < 50%) | < 50%
Nc1nnc(-c2ccccc2O)cc1OCC12CC(C(=O)NCCCCCCNc3ccc4c(c3)C(=O)N(C3CCC(=O)NC3=O)C4=O)(C1)C2 (centres unmarked) [Compound 64, 3-(((3-amino-6-(2-hydroxyphenyl)pyridazin-4-yl)oxy)methyl)-N-(6-((2-(2,6-dioxopiperidin-3-yl)-1,3-dioxoisoindolin-5-yl)amino)hexyl)bicyclo[1.1.1]pentane-1-carboxamide] | C (“C” indicates maximum degradation < 50%) | < 50%
Nc1nnc(-c2ccccc2O)cc1OCC12CC(C(=O)N3CCN(CCCOCC#Cc4ccc5c(c4)C(=O)N(C4CCC(=O)NC4=O)C5=O)CC3)(C1)C2 (centres unmarked) [Compound 52, 5-(3-(3-(4-(3-(((3-amino-6-(2-hydroxyphenyl)pyridazin-4-yl)oxy)methyl)bicyclo[1.1.1]pentane-1-carbonyl)piperazin-1-yl)propoxy)prop-1-yn-1-yl)-2-(2,6-dioxopiperidin-3-yl)isoindoline-1,3-dione] | C (“C” indicates maximum degradation < 50%) | < 50%
